As usually defined, the Ki is the equilibrium dissociation constant of an inhibitor or competing ligand from its target.

Molecules are shown by their SMILES.

The target in this test is T1, Recombinant Human Poly(ADP-Ribose) Polymerase (PARP) (Homo sapiens, UniProt P09874).
T1 construct: purchased Trevigen, Gaithersburg, Md; host or cells: E. coli
T1 sequence (P09874 whole entry): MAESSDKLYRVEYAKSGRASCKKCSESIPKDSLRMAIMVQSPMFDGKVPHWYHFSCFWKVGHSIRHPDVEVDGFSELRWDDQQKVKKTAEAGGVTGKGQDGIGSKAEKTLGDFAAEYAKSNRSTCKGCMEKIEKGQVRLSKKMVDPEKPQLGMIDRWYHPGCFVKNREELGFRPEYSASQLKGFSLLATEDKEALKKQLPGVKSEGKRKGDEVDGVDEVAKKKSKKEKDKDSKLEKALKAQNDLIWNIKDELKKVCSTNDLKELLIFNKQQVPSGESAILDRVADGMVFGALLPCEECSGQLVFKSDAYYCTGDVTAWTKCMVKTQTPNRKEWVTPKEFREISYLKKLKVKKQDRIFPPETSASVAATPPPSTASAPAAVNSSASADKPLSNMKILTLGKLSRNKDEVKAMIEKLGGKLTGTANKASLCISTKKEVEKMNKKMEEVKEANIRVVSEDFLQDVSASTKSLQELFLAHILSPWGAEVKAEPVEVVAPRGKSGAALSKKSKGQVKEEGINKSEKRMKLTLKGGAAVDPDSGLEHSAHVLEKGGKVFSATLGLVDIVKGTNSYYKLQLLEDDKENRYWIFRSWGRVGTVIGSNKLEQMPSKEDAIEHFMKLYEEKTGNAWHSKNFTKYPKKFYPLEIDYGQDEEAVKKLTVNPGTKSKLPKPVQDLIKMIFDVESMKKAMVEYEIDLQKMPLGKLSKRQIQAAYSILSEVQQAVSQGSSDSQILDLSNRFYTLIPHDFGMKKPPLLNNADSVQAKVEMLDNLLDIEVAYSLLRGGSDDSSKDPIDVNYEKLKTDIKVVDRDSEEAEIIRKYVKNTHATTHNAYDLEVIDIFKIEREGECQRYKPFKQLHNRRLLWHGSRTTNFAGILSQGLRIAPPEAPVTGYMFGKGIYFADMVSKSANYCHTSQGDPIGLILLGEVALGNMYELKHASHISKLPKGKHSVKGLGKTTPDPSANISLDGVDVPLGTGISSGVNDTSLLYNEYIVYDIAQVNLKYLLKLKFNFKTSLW
As to the kind of experiment: PARP1 inhibition assay ([3H]-NAD+, biotinylated histone H1, FlashPlate/SPA). Type of test: biochemical. The settings on record: from inhibition curves at various substrate concentrations.
Method: Nicotinamide[2,5′,8-3H]adenine dinucleotide and strepavidin SPA beads were purchased from Amersham Biosiences (UK) Recombinant Human Poly(ADP-Ribose) Polymerase (PARP) purified from E. coli and 6-Biotin-17-NAD^+, were purchase from Trevigen, Gaithersburg, Md. NAD^+, Histone, aminobenzamide, 3-amino benzamide and Calf Thymus DNA (dcDNA) were purchased from Sigma, St. Louis, Mo. […] Biotinylated histone H1 was prepared by treating the protein with Sulfo-NHS-LC-Biotin from Pierce Rockford, Ill. […] Streptavidin coated (FlashPlate Plus) microplates were purchased from Perkin Elmer, Boston, Mass.
PARP1 assay was conducted in PARP assay buffer containing 50 mM Tris pH 8.0, 1 mM DTT, 4 mM MgCl2. […] 170 μl of the stopped reaction mixtures were transferred to streptavidin Flash Plates, incubated for 1 hr, and counted using a TopCount microplate scintillation counter.
On to `CC1(c2nc3c(C(N)=O)cccc3[nH]2)CCN1C1CCC1` (stereo not shown) [2-(1-cyclobutyl-2-methylazetidin-2-yl)-1H-benzimidazole-4-carboxamide], for which the Ki was 33.3 nM.
Regarding `CC1(c2nc3c(C(N)=O)cccc3[nH]2)CN(C2CCC2)C1` [2-(1-cyclobutyl-3-methylazetidin-3-yl)-1H-benzimidazole-4-carboxamide], the Ki was found to be 6.1 nM.
Consider `CC1(c2nc3c(C(N)=O)cccc3[nH]2)CCN(C2CCC2)C1` (stereo not shown) [2-(1-cyclobutyl-3-methylpyrrolidin-3-yl)-1H-benzimidazole-4-carboxamide], for which the Ki turned out to be 4 nM.
The result for `CC1(c2nc3c(C(N)=O)cccc3[nH]2)CCN(C2CCC2)CC1` [2-(1-cyclobutyl-4-methylpiperidin-4-yl)-1H-benzimidazole-4-carboxamide] reads 9.2 nM; that for `NC(=O)c1cccc2[nH]c(C3CCN3C3CCC3)nc12` (stereo not shown) [2-(1-cyclobutylazetidin-2-yl)-1H-benzimidazole-4-carboxamide], 80 nM; that for `NC(=O)c1cccc2[nH]c(C3CN(C4CCC4)C3)nc12` [2-(1-cyclobutylazetidin-3-yl)-1H-benzimidazole-4-carboxamide], 16.4 nM.
The result for `NC(=O)c1cccc2[nH]c(C3CCN(C4CCC4)CC3)nc12` [2-(1-cyclobutylpiperidin-4-yl)-1H-benzimidazole-4-carboxamide] reads 6.3 nM.
As for `NC(=O)c1cccc2[nH]c(C3CCN(C4CCC4)C3)nc12` (stereo not shown) [2-(1-cyclobutylpyrrolidin-3-yl)-1H-benzimidazole-4-carboxamide], the Ki was 6.8 nM.
For the molecule `CC1(c2nc3c(C(N)=O)cccc3[nH]2)CCN1C1CCCCC1` (stereo not shown) [2-(1-cyclohexyl-2-methylazetidin-2-yl)-1H-benzimidazole-4-carboxamide], the Ki is 27.7 nM.
In the case of `CC1(c2nc3c(C(N)=O)cccc3[nH]2)CN(C2CCCCC2)C1` [2-(1-cyclohexyl-3-methylazetidin-3-yl)-1H-benzimidazole-4-carboxamide], the Ki was determined as 5.6 nM.
To `CC1(c2nc3c(C(N)=O)cccc3[nH]2)CCN(C2CCCCC2)C1` (stereo not shown) [2-(1-cyclohexyl-3-methylpyrrolidin-3-yl)-1H-benzimidazole-4-carboxamide] belongs 5.8 nM.
Turning to `CC1(c2nc3c(C(N)=O)cccc3[nH]2)CCCN(C2CCCCC2)CC1` (stereo not shown) [2-(1-cyclohexyl-4-methylazepan-4-yl)-1H-benzimidazole-4-carboxamide], the Ki is 11.9 nM.
Take `NC(=O)c1cccc2[nH]c(C3CCCN(C4CCCCC4)CC3)nc12` (stereo not shown) [2-(1-cyclohexylazepan-4-yl)-1H-benzimidazole-4-carboxamide]: the Ki came out at 4.8 nM.
In the case of `NC(=O)c1cccc2[nH]c(C3CCN3C3CCCCC3)nc12` (stereo not shown) [2-(1-cyclohexylazetidin-2-yl)-1H-benzimidazole-4-carboxamide], the Ki amounted to 245 nM.
Regarding `NC(=O)c1cccc2[nH]c(C3CN(C4CCCCC4)C3)nc12` [2-(1-cyclohexylazetidin-3-yl)-1H-benzimidazole-4-carboxamide], the Ki was determined as 16 nM.
The result for `NC(=O)c1cccc2[nH]c(C3CCN(C4CCCCC4)C3)nc12` (stereo not shown) [2-(1-cyclohexylpyrrolidin-3-yl)-1H-benzimidazole-4-carboxamide] reads 7 nM; that for `CC1(c2nc3c(C(N)=O)cccc3[nH]2)CCN1C1CCCC1` (stereo not shown) [2-(1-cyclopentyl-2-methylazetidin-2-yl)-1H-benzimidazole-4-carboxamide], 31.1 nM; that for `CC1(c2nc3c(C(N)=O)cccc3[nH]2)CN(C2CCCC2)C1` [2-(1-cyclopentyl-3-methylazetidin-3-yl)-1H-benzimidazole-4-carboxamide], 4 nM.
To `CC1(c2nc3c(C(N)=O)cccc3[nH]2)CCN(C2CCCC2)C1` (stereo not shown) [2-(1-cyclopentyl-3-methylpyrrolidin-3-yl)-1H-benzimidazole-4-carboxamide] belongs 3.4 nM; to `CCN1CCCC1(C)c1nc2c(C(N)=O)cccc2[nH]1` (stereo not shown) [2-(1-ethyl-2-methylpyrrolidin-2-yl)-1H-benzimidazole-4-carboxamide], 6 nM.
As for `CC(C)CN1CC(C)(c2nc3c(C(N)=O)cccc3[nH]2)C1` [2-(1-isobutyl-3-methylazetidin-3-yl)-1H-benzimidazole-4-carboxamide], the Ki was found to be 5.6 nM.
To `CC(C)CN1CCC(C)(c2nc3c(C(N)=O)cccc3[nH]2)C1` (stereo not shown) [2-(1-isobutyl-3-methylpyrrolidin-3-yl)-1H-benzimidazole-4-carboxamide] belongs 3.8 nM; to `CC(C)CN1CC(c2nc3c(C(N)=O)cccc3[nH]2)C1` [2-(1-isobutylazetidin-3-yl)-1H-benzimidazole-4-carboxamide], 14.4 nM; to `CC(C)CN1CCC(c2nc3c(C(N)=O)cccc3[nH]2)C1` (stereo not shown) [2-(1-isobutylpyrrolidin-3-yl)-1H-benzimidazole-4-carboxamide], 7.4 nM.
`CC(C)N1CCC1c1nc2c(C(N)=O)cccc2[nH]1` (stereo not shown) [2-(1-isopropylazetidin-2-yl)-1H-benzimidazole-4-carboxamide]: the Ki worked out at 118 nM.
Take `CC(C)N1CCC(c2nc3c(C(N)=O)cccc3[nH]2)CC1` [2-(1-isopropylpiperidin-4-yl)-1H-benzimidazole-4-carboxamide]: the Ki is 6 nM.
For `CCCN1CC(c2nc3c(C(N)=O)cccc3[nH]2)C1` [2-(1-propylazetidin-3-yl)-1H-benzimidazole-4-carboxamide], the Ki came to 14.1 nM.
To `CCCN1CCC(c2nc3c(C(N)=O)cccc3[nH]2)C1` (stereo not shown) [2-(1-propylpyrrolidin-3-yl)-1H-benzimidazole-4-carboxamide] belongs 8.1 nM; to `NC(=O)c1cccc2[nH]c(C3CN(C4CCOCC4)C3)nc12` [2-(1-tetrahydro-2H-pyran-4-ylazetidin-3-yl)-1H-benzimidazole-4-carboxamide], 45.6 nM; to `NC(=O)c1cccc2[nH]c(C3CCN(C4CCOCC4)C3)nc12` (stereo not shown) [2-(1-tetrahydro-2H-pyran-4-ylpyrrolidin-3-yl)-1H-benzimidazole-4-carboxamide], 8.2 nM.
The result for `CCCN1CCCC1(C)c1nc2c(C(N)=O)cccc2[nH]1` (stereo not shown) [2-(2-methyl-1-propylpyrrolidin-2-yl)-1H-benzimidazole-4-carboxamide] reads 18.7 nM; that for `CCCN1CC(C)(c2nc3c(C(N)=O)cccc3[nH]2)C1` [2-(3-methyl-1-propylazetidin-3-yl)-1H-benzimidazole-4-carboxamide], 6.9 nM; that for `CCCN1CCC(C)(c2nc3c(C(N)=O)cccc3[nH]2)C1` (stereo not shown) [2-(3-methyl-1-propylpyrrolidin-3-yl)-1H-benzimidazole-4-carboxamide], 4.2 nM.
The result for `CC1(c2nc3c(C(N)=O)cccc3[nH]2)CN(C2CCOCC2)C1` [2-(3-methyl-1-tetrahydro-2H-pyran-4-ylazetidin-3-yl)-1H-benzimidazole-4-carboxamide] reads 12.7 nM; that for `CC1(c2nc3c(C(N)=O)cccc3[nH]2)CCN(C2CCOCC2)C1` (stereo not shown) [2-(3-methyl-1-tetrahydro-2H-pyran-4-ylpyrrolidin-3-yl)-1H-benzimidazole-4-carboxamide], 7.2 nM; that for `CCCN1CCC(C)(c2nc3c(C(N)=O)cccc3[nH]2)CC1` [2-(4-methyl-1-propylpiperidin-4-yl)-1H-benzimidazole-4-carboxamide], 13.5 nM.
For `CC(CCc1ccccc1)N1CCC(c2nc3c(C(N)=O)cccc3[nH]2)C1` (stereo not shown) [2-[1-(1-methyl-3-phenylpropyl)pyrrolidin-3-yl]-1H-benzimidazole-4-carboxamide], the Ki came to 13.2 nM.
The result for `CC1(c2nc3c(C(N)=O)cccc3[nH]2)CN(CC2CC2)C1` [2-[1-(cyclopropylmethyl)-3-methylazetidin-3-yl]-1H-benzimidazole-4-carboxamide] reads 8 nM; that for `CC1(c2nc3c(C(N)=O)cccc3[nH]2)CCN(CC2CC2)C1` (stereo not shown) [2-[1-(cyclopropylmethyl)-3-methylpyrrolidin-3-yl]-1H-benzimidazole-4-carboxamide], 5 nM; that for `NC(=O)c1cccc2[nH]c(C3CN(CC4CC4)C3)nc12` [2-[1-(cyclopropylmethyl)azetidin-3-yl]-1H-benzimidazole-4-carboxamide], 19 nM.
To `NC(=O)c1cccc2[nH]c(C3CCN(CC4CC4)C3)nc12` (stereo not shown) [2-[1-(cyclopropylmethyl)pyrrolidin-3-yl]-1H-benzimidazole-4-carboxamide] belongs 5.2 nM; to `NC(=O)c1cccc2[nH]c(C3CCN(Cc4ccncc4)C3)nc12` (stereo not shown) [2-[1-(pyridin-4-ylmethyl)pyrrolidin-3-yl]-1H-benzimidazole-4-carboxamide], 14.2 nM.
To `CC(CCc1ccccc1)N1CCC(C)(c2nc3c(C(N)=O)cccc3[nH]2)C1` (stereo not shown) [2-[3-methyl-1-(1-methyl-3-phenylpropyl)pyrrolidin-3-yl]-1H-benzimidazole-4-carboxamide] belongs 12 nM; to `CC1(c2nc3c(C(N)=O)cccc3[nH]2)CCN(Cc2ccncc2)C1` (stereo not shown) [2-[3-methyl-1-(pyridin-4-ylmethyl)pyrrolidin-3-yl]-1H-benzimidazole-4-carboxamide], 8.9 nM.
With `NC(=O)c1cccc2[nH]c([C@H]3CCCN3C3CCC3)nc12` [2-[(2R)-1-cyclobutylpyrrolidin-2-yl]-1H-benzimidazole-4-carboxamide], the Ki amounted to 142 nM.
The result for `CC(C)N1CCC[C@@H]1c1nc2cccc(C(N)=O)c2[nH]1` [2-[(2R)-1-isopropylpyrrolidin-2-yl]-1H-benzimidazole-4-carboxamide] reads 12.8 nM.
To `CCCN1CCC[C@@H]1c1nc2c(C(N)=O)cccc2[nH]1` [2-[(2R)-1-propylpyrrolidin-2-yl]-1H-benzimidazole-4-carboxamide] belongs 146 nM.
For `NC(=O)c1cccc2[nH]c([C@@H]3CCCN3C3CCC3)nc12` [2-[(2S)-1-cyclobutylpyrrolidin-2-yl]-1H-benzimidazole-4-carboxamide], the Ki amounted to 338 nM.
The result for `CCN1CCC[C@H]1c1nc2c(C(N)=O)cccc2[nH]1` [2-[(2S)-1-ethylpyrrolidin-2-yl]-1H-benzimidazole-4-carboxamide] reads 49 nM.

The record behind these values is patent US20080293795A1, “COMBINATION THERAPY WITH PARP INHIBITORS” (ABBOTT LABORATORIES, priority 2006, published 2008).
